What was measured:
Wistar rats [1] = experiment: Reproductive toxicity screening combined with 28-day repeated dose toxicity study (OECD TG 422); type: in vivo, rat; details: for NOAEL, reproductive toxicity: OECD 422 v 2016, oral gavage
Description: Healthy and specific pathogen-free male and female (non-pregnant and nulliparous) Wistar Crl: WI(Han) rats were obtained from Charles River Laboratories (Germany). […] Upon arrival at BSL BIOSERVICE, the animals underwent an acclimatisation period of at least 5 days, and they were approximately 15–16 weeks old at the onset of the treatment period.

Wistar rats [2] = experiment: Reproductive toxicity screening study (OECD TG 421); type: in vivo, rat; details: for NOAEL, reproductive toxicity: OECD 421 v 2016 oral gavage (& historical OECD 422 feeding study)
Description: Healthy and specific pathogen-free male and female (non-pregnant and nulliparous) Wistar Crl: WI(Han) rats were obtained from Charles River Laboratories (Germany). The animals were housed in an air-conditioned room (temperature: 22 ± 3 °C; relative humidity: 55 ± 10%; artificial light, light–dark cycle: 12 h–12 h; air change: 10 times/h). Housing was in groups of 5 animals/sex/cage in individually ventilated Type IV polysulphone cages on Altromin saw fibre bedding with free access to both Altromin 1324 maintenance diet for rats and mice and tap water. Upon arrival at BSL BIOSERVICE, the animals underwent an acclimatisation period of at least 5 days, and they were approximately 15–16 weeks old at the onset of the treatment period. […]

COC(=O)c1ccc(O)cc1 [Methyl paraben, Methyl 4-hydroxybenzoate]
NOAEL, reproductive toxicity (Wistar rats [1]): NOAEL: 1000 (OECD 422; v 2016) mg/kg body weight/day | NOAEL, reproductive toxicity (Wistar rats [1]; listed as methyl paraben): 1000 mg/kg body weight/day | Treatment-related effects in parental animals or pups (Wistar rats [1]; OECD TG 422): no treatment-related effects | Adrenals HP (Wistar rats [1]; P0, F1): NAE / NAE | Adrenals weight (Wistar rats [1]; P0, F1): NAE / NAE | Brain weight (Wistar rats [1]; P0, F1): NAE / NAE | Coagulating gland HP (Wistar rats [1]; P0, F1): NAE / NAE | Epididymis HP (Wistar rats [1]; P0, F1): NAE / NAE | Epididymis weight (Wistar rats [1]; P0, F1): NAE / NAE | Fertility (Wistar rats [1]; P0, F1): NAE / NAE | Foetal development (Wistar rats [1]; P0, F1): NAE / NAE | Gestation length (Wistar rats [1]; P0, F1): NAE / NAE | Litter size (Wistar rats [1]; P0, F1): NAE / NAE | Litter viability (Wistar rats [1]; P0, F1): NAE / NAE | Liver weight (Wistar rats [1]; P0, F1): NAE / NAE | Mammary gland HP; males (Wistar rats [1]; P0, F1): NAE / NAE | Nipple development (Wistar rats [1]; P0, F1): NAE / NAE | No. of implantations, corpora lutea (Wistar rats [1]; P0, F1): NAE / NAE | No. of live births (Wistar rats [1]; P0, F1): NAE / NAE | Oestrus cyclicity (Wistar rats [1]; P0, F1): NAE / NAE | Ovary HP (Wistar rats [1]; P0, F1): NAE / NAE | Ovary weight (Wistar rats [1]; P0, F1): NAE / NAE | Postimplantation loss (Wistar rats [1]; P0, F1): NAE / NAE | Pre-implantation loss (Wistar rats [1]; P0, F1): NAE / NAE | Presence of anomalies (external, visceral, skeletal) (Wistar rats [1]; P0, F1): NAE / NAE | Prostate HP (Wistar rats [1]; P0, F1): NAE / NAE | Prostate weight (Wistar rats [1]; P0, F1): NAE / NAE | Reproduction (Wistar rats [1]; P0, F1): NAE / NAE | Seminal vesicles HP (Wistar rats [1]; P0, F1): NAE / NAE | Seminal vesicles weight (Wistar rats [1]; P0, F1): NAE / NAE | Testis HP (Wistar rats [1]; P0, F1): NAE / NAE | Testis weight (Wistar rats [1]; P0, F1): NAE / NAE | Thyroid stimulating hormone level (Wistar rats [1]; P0, F1): NAE / NAE | Time to mating (Wistar rats [1]; P0, F1): NAE / NAE | Triiodothyronine / thyroxine level (Wistar rats [1]; P0, F1): NAE / NAE | Uterus HP (with cervix) (Wistar rats [1]; P0, F1): NAE / NAE | Uterus weight (with cervix) (Wistar rats [1]; P0, F1): NAE / NAE | Vagina HP (Wistar rats [1]; P0, F1): NAE / NAE | Vaginal smears (Wistar rats [1]; P0, F1): NAE / NAE

CCCOC(=O)c1ccc(O)cc1 [Propyl paraben, Propyl 4-hydroxybenzoate]
NOAEL, reproductive toxicity (Wistar rats [2]): NOAEL: 1000 (OECD 421; v 2016 & OECD 422 [b]) mg/kg body weight/day | NOAEL, reproductive toxicity (Wistar rats [2]; listed as propyl paraben): 1000 mg/kg body weight/day | Treatment-related effects in parental animals or pups (Wistar rats [2]; OECD TG 421): no treatment-related effects | Accessory sex organs HP (Wistar rats [2]; P0, F1): n. a. / NAE | Anogenital distance (Wistar rats [2]; P0, F1): n. a. / NAE | Coagulating gland weight (Wistar rats [2]; P0, F1): n. a. / NAE | Dystocia (Wistar rats [2]; P0, F1): n. a. / NAE | Epididymis HP (Wistar rats [2]; P0, F1): n. a. / NAE | Epididymis weight (Wistar rats [2]; P0, F1): n. a. / NAE | Fertility (Wistar rats [2]; P0, F1): n. a. / NAE | Foetal development (Wistar rats [2]; P0, F1): n. a. / NAE | Gestation length (Wistar rats [2]; P0, F1): n. a. / NAE | Litter size (Wistar rats [2]; P0, F1): n. a. / NAE | Litter viability (Wistar rats [2]; P0, F1): n. a. / NAE | Nipple development (Wistar rats [2]; P0, F1): n. a. / NAE | No. of implantations, corpora lutea (Wistar rats [2]; P0, F1): n. a. / NAE | No. of live births (Wistar rats [2]; P0, F1): n. a. / NAE | Oestrus cyclicity (Wistar rats [2]; P0, F1): n. a. / NAE | Ovary HP (Wistar rats [2]; P0, F1): n. a. / NAE | Postimplantation loss (Wistar rats [2]; P0, F1): n. a. / NAE | Pre-implantation loss (Wistar rats [2]; P0, F1): n. a. / NAE | Presence of anomalies (external, visceral, skeletal) (Wistar rats [2]; P0, F1): n. a. / NAE | Prostate HP (Wistar rats [2]; P0, F1): n. a. / NAE | Prostate weight (Wistar rats [2]; P0, F1): n. a. / NAE | Reproduction (Wistar rats [2]; P0, F1): n. a. / NAE | Seminal vesicles weight (Wistar rats [2]; P0, F1): n. a. / NAE | Testis HP (Wistar rats [2]; P0, F1): n. a. / NAE | Testis weight (Wistar rats [2]; P0, F1): n. a. / NAE | Thyroid stimulating hormone level (Wistar rats [2]; P0, F1): n. a. / NAE | Time to mating (Wistar rats [2]; P0, F1): n. a. / NAE | Triiodothyronine / thyroxine level (Wistar rats [2]; P0, F1): n. a. / NAE | Vaginal smears (Wistar rats [2]; P0, F1): n. a. / NAE
